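Assay format: 96-well plates, 48-hour exposure. At the GI50, growth is halved. The concentration for full growth arrest is given as TGI.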
Columns and labels:
Assay in all cases: NCI anticancer screen, dose series, 48 h
ACHN renal = tested on: ACHN renal
HCT-15 colon = tested on: HCT-15 colon
HOP-62 NSCLC = tested on: HOP-62 NSCLC
HOP-92 NSCLC = tested on: HOP-92 NSCLC
MOLT-4 leukemia = tested on: MOLT-4 leukemia
NCI-H522 lung = tested on: NCI-H522 lung
OVCAR-8 ovarian = tested on: OVCAR-8 ovarian
SK-MEL-28 melanoma = tested on: SK-MEL-28 melanoma
SNB-19 CNS = tested on: SNB-19 CNS
UACC-257 melanoma = tested on: UACC-257 melanoma

| SMILES | TGI (ACHN renal) [µM] | TGI (HCT-15 colon) [µM] | TGI (HOP-62 NSCLC) [µM] | TGI (HOP-92 NSCLC) [µM] | TGI (MOLT-4 leukemia) [µM] | TGI (NCI-H522 lung) [µM] | TGI (OVCAR-8 ovarian) [µM] | TGI (SK-MEL-28 melanoma) [µM] | TGI (SNB-19 CNS) [µM] | TGI (UACC-257 melanoma) [µM] | GI50 (HOP-62 NSCLC) [nM] | GI50 (HOP-92 NSCLC) [µM] | GI50 (MOLT-4 leukemia) [µM] | GI50 (NCI-H522 lung) [µM] | GI50 (OVCAR-8 ovarian) [µM] | GI50 (SNB-19 CNS) [µM] | GI50 (ACHN renal) [µM] | GI50 (HCT-15 colon) [µM] | GI50 (SK-MEL-28 melanoma) [µM] | GI50 (UACC-257 melanoma) [µM] |
| --- | --- | --- | --- | --- | --- | --- | --- | --- | --- | --- | --- | --- | --- | --- | --- | --- | --- | --- | --- | --- |
| CN=C(N)/N=C(\N)Nc1cc2ccccc2c2ccccc12 | 26.3 | 33.4 | 33.4 | 40.8 | 34 | 26.2 | 33.8 | 34.1 | 30.9 | 30.9 | – | – | – | – | – | – | – | – | – | – |
| COc1cc(NC(=O)CSc2nc3ccccc3c(=O)n2CCc2ccccc2)cc(OC)c1OC | – | – | 4.88 | 3.44 | > 100 | 4.2 | > 100 | – | 17.5 | – | 2120 | 0.587 | > 100 | 1.65 | 2.7 | 3.49 | – | – | – | – |
| CC(=O)N1CC(=O)NC1=S | > 100 | > 100 | > 100 | > 100 | > 100 | > 100 | > 100 | > 100 | > 100 | > 100 | – | – | – | – | – | – | – | – | – | – |
| O=C(Nc1cccc([N+](=O)[O-])c1)C(=O)C(C(=O)c1ccccc1F)C1OC(=O)C2C=CC=CC21 (stereo unspecified) | > 100 | > 100 | > 100 | > 100 | > 100 | 55.7 | > 100 | > 100 | > 100 | > 100 | – | – | – | – | – | – | – | – | – | – |
| C/C=C1/CN2CCC34c5ccccc5N(C)C23C2CC1C4(C(=O)OC)C(O)O2 (stereo unspecified) | > 100 | > 100 | > 100 | > 100 | > 100 | > 100 | > 100 | > 100 | > 100 | > 100 | – | – | – | – | – | – | – | – | – | – |
| COc1c(O)c(O)c2c(c1O)C(=O)c1cc(C)cc(O)c1C2=O | > 100 | > 100 | > 100 | > 100 | > 100 | 48.1 | > 83.3 | > 100 | > 100 | > 100 | – | – | – | – | – | – | – | – | – | – |
| N#CCCOCN(CO)c1nc(N(CO)COCCC#N)nc(N(CO)COCCC#N)n1 | 76.1 | 37.3 | > 100 | 45.8 | 50.7 | 47.5 | 34.7 | 38.8 | > 100 | 63.9 | – | – | – | – | – | – | – | – | – | – |
| c1ccc(CCN2CCOCC2)nc1 | > 100 | > 100 | > 100 | > 100 | – | > 100 | > 100 | > 100 | > 100 | > 100 | – | – | – | – | – | – | – | – | – | – |
| Nc1cccc2c1C1=NNC(=O)CC1C2 (stereo unspecified) | – | > 100 | > 100 | 4.46 | > 100 | > 100 | > 100 | > 100 | > 100 | > 100 | – | – | – | – | – | – | – | – | – | – |
| O=C(NCCNc1nccc(-c2c(-c3cccc(O)c3)nc3sccn23)n1)Nc1cccc(C(F)(F)F)c1 | 45.7 | 24.1 | 23.4 | 9.38 | 14.6 | 5 | 11 | – | 36.2 | 6.94 | 8330 | 2.19 | 3.6 | 2.11 | 3.56 | 5.09 | 5.79 | 4.26 | 2.68 | 2.51 |
| Cc1c2cc[n+](C)cc2c(C)c2c1[nH]c1ccc(Cl)cc12 | 61.7 | > 100 | 6.95 | 26.5 | 58.4 | 2.38 | 15.5 | 16.5 | 1.21 | 62.3 | – | – | – | – | – | – | – | – | – | – |
| CCOC(=O)C(=O)Nc1c(CC)cccc1C(C)CC (stereo unspecified) | > 100 | > 100 | > 100 | > 100 | > 100 | > 100 | > 100 | > 100 | > 100 | > 100 | – | – | – | – | – | – | – | – | – | – |
| C=Cc1cc(OC)c2c(c1)c(=O)oc1c2cc(OC)c2c(O)ccc(C3OC(C)C(O)C(C)(O)C3O)c21 (stereo unspecified) | – | 0.467 | – | 0.24 | – | – | – | – | 0.733 | – | 0.0967 | 0.000215 | 1.98e-05 | – | 0.000476 | 0.00151 | – | 0.000552 | – | – |
| CNS(=O)(=O)c1ccc2[nH]c(O)c(C3=Nc4ccccc4C3=O)c2c1 | > 100 | > 100 | > 100 | – | > 100 | > 100 | – | > 100 | > 100 | > 100 | – | – | – | – | – | – | – | – | – | – |
| NC(=O)Nc1ccc(C(=O)NCCCNC(=O)c2ccc(NC(N)=O)cc2)cc1 | > 100 | > 100 | > 100 | > 100 | > 100 | > 100 | > 100 | > 100 | > 100 | > 100 | – | – | – | – | – | – | – | – | – | – |
